Results reported in ChEMBL document CHEMBL6078666, “Discovery of Novel Coumarin Pleuromutilin Derivatives as Potent Anti-MRSA Agents” (J Med Chem, 2024).
In brackets after ≈: the same amount, converted by molar mass. Activity calls are given as the source filed them. The calls are words filed in the database; no cut-off is given here.

Key:
Staphylococcus aureus [1] = experiment: Antibacterial activity against methicillin-resistant Staphylococcus aureus ATCC 33591 assessed as bacterial growth inhibition measured after 20 hrs by broth dilution method; format: functional
[2] = test system: Staphylococcus epidermidis; experiment: Antibacterial activity against Staphylococcus epidermidis ATCC 51625 assessed as bacterial growth inhibition measured after 20 hrs by broth dilution method; format: functional
Enterococcus faecium [3] = experiment: Antibacterial activity against vancomycin-resistant Enterococcus faecium ATCC 51559 assessed as bacterial growth inhibition measured after 20 hrs by broth dilution method; format: functional
Staphylococcus aureus [4] = experiment: Ratio of MBC to MIC against methicillin-resistant Staphylococcus aureus ATCC 33591; format: functional
Staphylococcus aureus [5] = experiment: Ratio of MBC to MIC against Staphylococcus aureus ATCC 43300; format: functional
[6] = test system: Staphylococcus epidermidis; experiment: Ratio of MBC to MIC against Staphylococcus epidermidis ATCC 51625; format: functional
Streptococcus pneumoniae = experiment: Ratio of MBC to MIC against penicillin-intermediate Streptococcus pneumoniae ATCC 49619; format: functional
Staphylococcus aureus [7] = experiment: Antibacterial activity against methicillin-resistant Staphylococcus aureus clinical isolate 202313160 assessed as bacterial growth inhibition measured after 20 hrs by broth dilution method; format: functional
Enterococcus faecium [8] = experiment: Antibacterial activity against vancomycin-resistant Enterococcus faecium clinical isolate 202308456 assessed as bacterial growth inhibition measured after 20 hrs by broth dilution method; format: functional
Staphylococcus aureus [9] = experiment: Ratio of MBC to MIC against methicillin-resistant Staphylococcus aureus clinical isolate 202313160; format: functional
[10] = test system: Staphylococcus epidermidis; experiment: Ratio of MBC to MIC against methicillin-resistant Staphylococcus epidermidis clinical isolate 202409139; format: functional
Staphylococcus aureus [11] = experiment: Bactericidal activity against methicillin-resistant Staphylococcus aureus ATCC 33591 at 1 times MIC measured upto 24 hrs by time kill assay; format: functional, organism-based
Staphylococcus aureus [12] = experiment: Bactericidal activity against methicillin-resistant Staphylococcus aureus ATCC 33591 at 1 to 8 times MIC by time kill assay; format: functional, organism-based; settings: time <= 24.0 hrs
Staphylococcus aureus [13] = experiment: Antibiofilm activity in methicillin-resistant Staphylococcus aureus ATCC 33591 assessed as disruption of preformed biofilm at 1 time MIC measured after 24 hrs by crystal violet staining based assay relative to control; format: functional
Staphylococcus aureus [14] = experiment: Antibiofilm activity in methicillin-resistant Staphylococcus aureus ATCC 33591 assessed as disruption of preformed biofilm at 4 to 16 times MIC measured after 24 hrs by crystal violet staining based assay relative to control; format: functional
Staphylococcus aureus [15] = experiment: Induction of morphological changes in methicillin-resistant Staphylococcus aureus ATCC 33591 assessed as appearance of rough cell surface at 1 time MIC measured after 4 hrs by SEM analysis; format: functional, organism-based
Staphylococcus aureus [16] = experiment: Induction of morphological changes in methicillin-resistant Staphylococcus aureus ATCC 33591 assessed as appearance of wrinkled cell surface at 1 to 4 times MIC measured after 4 hrs by SEM analysis; format: functional, organism-based
Staphylococcus aureus [17] = experiment: Induction of morphological changes in methicillin-resistant Staphylococcus aureus ATCC 33591 assessed as appearance of shrinked cell surface at 1 time MIC measured after 4 hrs by SEM analysis; format: functional, organism-based
A549 = experiment: Cytotoxicity against human A549 cells at 0 to 40 ug/ml measured after 24 hrs by MTT assay relative to control; format: functional; settings: dose 0-40 µg/ml
[18] = Hemolytic activity in rabbit RBC assessed as hemolysis rate at 0 to 100 ug/ml incubated for 1 hr by microplate reader analysis relative to control; format: toxicity, cell-based, Oryctolagus cuniculus, Erythrocyte; settings: rabbit red blood cells, dose 0-100 µg/ml, read-out: Activity
[19] = Hemolytic activity in rabbit RBC assessed as hemolysis rate at 200 ug/ml incubated for 1 hr by microplate reader analysis relative to control; format: toxicity, cell-based, Oryctolagus cuniculus, Erythrocyte; settings: rabbit red blood cells, at 200 µg/mL, read-out: Activity
Staphylococcus aureus [20] = experiment: Antibacterial activity against methicillin-resistant Staphylococcus aureus ATCC 33591 infected in female C57 mouse systemic infection model assessed as survival rate at 5 mg/kg, po measured upto 7 days relative to control; format: functional; settings: ATCC 33591, 168 h, time <= 7 day
Staphylococcus aureus [21] = experiment: Antibacterial activity against methicillin-resistant Staphylococcus aureus ATCC 33591 infected in female C57 mouse systemic infection model assessed as survival rate at 20 mg/kg, po measured upto 7 days relative to control; format: functional; settings: ATCC 33591, 168 h, time <= 7 day
Staphylococcus aureus [22] = experiment: Antibacterial activity against methicillin-resistant Staphylococcus aureus ATCC 33591 infected in female C57 mouse systemic infection model assessed as effective dose; format: functional
Staphylococcus aureus [23] = experiment: Antibacterial activity against methicillin-resistant Staphylococcus aureus ATCC 33591 infected in female C57 mouse systemic infection model assessed as reduction in bacterial load in lung at 40 mg/kg, iv administered twice daily and measured after 7 days; format: functional; settings: time 7 day
Staphylococcus aureus [24] = experiment: Antibacterial activity against methicillin-resistant Staphylococcus aureus ATCC 33591 infected in female C57 mouse systemic infection model assessed as reduction in bacterial load in kidney at 40 mg/kg, iv administered twice daily and measured after 7 days; format: functional; settings: time 7 day
Staphylococcus aureus [25] = experiment: Antibacterial activity against methicillin-resistant Staphylococcus aureus ATCC 33591 infected in female C57 mouse systemic infection model assessed as reduction in bacterial load in spleen at 40 mg/kg, iv administered twice daily and measured after 7 days; format: functional; settings: time 7 day
Staphylococcus aureus [26] = experiment: Antibacterial activity against methicillin-resistant Staphylococcus aureus ATCC 33591 infected in female C57 mouse systemic infection model assessed as reduction in bacterial load in heart at 40 mg/kg, iv administered twice daily and measured after 7 days; format: functional; settings: time 7 day
[27] = MRT in mouse at 5 mg/kg, iv measured after 8 hrs; format: ADME, organism-based; settings: in vivo
Staphylococcus aureus [28] = experiment: Antibacterial activity against methicillin-resistant Staphylococcus aureus ATCC 33591 infected in female C57 mouse systemic infection model assessed as restoration of cell morphology at 40 mg/kg, iv administered twice daily and measured after 7 days by H and E staining based analysis; format: functional, organism-based; settings: time 7.0 day
Staphylococcus aureus [29] = experiment: Antibacterial activity against methicillin-resistant Staphylococcus aureus ATCC 33591 infected in female C57 mouse systemic infection model assessed as reduction in inflammatory cell aggregation in lung at 40 mg/kg, iv administered twice daily and measured after 7 days by H and E staining based analysis; format: functional, organism-based; settings: time 7.0 day
Staphylococcus aureus [30] = experiment: Antibacterial activity against methicillin-resistant Staphylococcus aureus ATCC 33591 infected in female C57 mouse systemic infection model assessed as reduction of mononuclear cell infiltration in liver at 40 mg/kg, iv administered twice daily and measured after 7 days by H and E staining based analysis; format: functional, organism-based; settings: time 7.0 day
Staphylococcus aureus [31] = experiment: Antibacterial activity against methicillin-resistant Staphylococcus aureus ATCC 33591 infected in female C57 mouse systemic infection model assessed as reduction of edema in kidney at 40 mg/kg, iv administered twice daily and measured after 7 days by H and E staining based analysis; format: functional, organism-based; settings: time 7.0 day
Staphylococcus aureus [32] = experiment: Antibacterial activity against methicillin-resistant Staphylococcus aureus ATCC 33591 infected in female C57 mouse systemic infection model assessed as reduction in tubular necrosis in kidney at 40 mg/kg, iv administered twice daily and measured after 7 days by H and E staining based analysis; format: functional, organism-based; settings: time 7.0 day
Staphylococcus aureus [33] = experiment: Antibacterial activity against methicillin-resistant Staphylococcus aureus ATCC 33591 infected in female C57 mouse systemic infection model assessed as reduction in local blood cell accumulation in spleen at 40 mg/kg, iv administered twice daily and measured after 7 days by H and E staining based analysis; format: functional, organism-based; settings: time 7.0 day

Structure (SMILES): C=C[C@]1(C)C[C@@H](OC(=O)CSc2cc(=O)oc3cc(OC)ccc23)[C@]2(C)[C@H](C)CC[C@]3(CCC(=O)[C@H]32)[C@@H](C)[C@@H]1O
- MIC (Staphylococcus aureus [1]): 0.031 µg/mL (≈ 0.0545 µM)
- MIC [2]: 0.016 µg/mL (≈ 0.0281 µM)
- MIC (Enterococcus faecium [3]): 0.031 µg/mL (≈ 0.0545 µM)
- Ratio (Staphylococcus aureus [4]): 2
- Ratio (Staphylococcus aureus [5]): >4
- Ratio [6]: 4
- Ratio (Streptococcus pneumoniae): >4
- MIC (Staphylococcus aureus [7]): 0.063 µg/mL (≈ 0.111 µM)
- MIC (Enterococcus faecium [8]): 0.031 µg/mL (≈ 0.0545 µM)
- Ratio (Staphylococcus aureus [9]): 2
- Ratio [10]: 2
- Activity (Staphylococcus aureus [11]): Active
- Activity (Staphylococcus aureus [12]): Time-dependent-effect
- Activity (Staphylococcus aureus [13]): 30.31%
- Activity (Staphylococcus aureus [14]): 68.29%
- Activity (Staphylococcus aureus [15]): Active
- Activity (Staphylococcus aureus [16]): Active
- Activity (Staphylococcus aureus [17]): Active
- Activity (A549): >85%
- hemolysis at 1 h [18]: < 4%
- hemolysis at 1 h, 200 ug/ml [19]: < 8%
- survival at 5 mg/kg (Staphylococcus aureus [20]): 40%
- survival at 20 mg/kg (Staphylococcus aureus [21]): 60%
- ED50 (Staphylococcus aureus [22]): 11.2 mg/kg
- Activity (Staphylococcus aureus [23]): 2.21 log10CFU/g
- Activity (Staphylococcus aureus [24]): 1.91 log10CFU/g
- Activity (Staphylococcus aureus [25]): 1.68 log10CFU/g
- Activity (Staphylococcus aureus [26]): 3.33 log10CFU/g
- MRT [27]: 36.6 min
- Activity (Staphylococcus aureus [28]): Active
- Activity (Staphylococcus aureus [29]): Active
- Activity (Staphylococcus aureus [30]): Active
- Activity (Staphylococcus aureus [31]): Active
- Activity (Staphylococcus aureus [32]): Active
- Activity (Staphylococcus aureus [33]): Active
